# In patent publication US20070202079A1, “Therapeutic compositions and methods useful in modulating protein tyrosine phosphatases” (priority 2006, published 2007):
# Entries after “also recorded” stand apart in the source; their conditions may differ.
# Tests used:
# Hey = experiment: HEY cell growth, MTT; assay type: cell-based, human; conditions: 100 μg/ml, day 6
# Method: (§1) NIH3T3 (Yi, et al., Blood 85, 87 (1995)), WM9 (Forsberg, et al., Proc. Nat. Acad Sci. USA 90, 393 (1993)), DU145 (Mickey, et al., Cancer Res. 37, 4049 (1977)), LoVo (Drewinko, et al., Cancer Res. 36, 467 (1976)), HEY (Buick, et al., Cancer Res. 45, 3668 (1985)), U251 (Yoshida, et al., Cancer 50, 410 (1982)), A549 (Giard, et al., J. Natl. Cancer Inst. 51, 1417 (1973)) and SK-N-SH (Helson, et al., Cancer Res. 35, 2594 (1975)) cell lines have been described and were cultured in RPMI 1640 supplemented with 10% fetal calf serum (FCS). For measurement of sodium stibogluconate effects on cell growth in vitro, cells were cultured in the absence (−) or presence (+) of various amounts of sodium stibogluconate for 6 days with viable cells quantified by MTT assays (Mosmann, J. Immunol. Methods 65, 55 (1983)). Percentages of growth inhibition by sodium stibogluconate were calculated (.+−.x%).
# toxicity in nude mice = assay type: in vivo
# Method: Nude mice bearing WM9 or DU145 xenografts were treated with IFN-alpha (500,000 U, s.c., daily), sodium stibogluconate (12 mg Sb, s.c., daily) or both. […] The dosage of sodium stibogluconate corresponds to approximately 440 mg Sb/kg body weight (average mouse body weight 27 g), substantially higher than the standard therapeutic dose of 20 mg Sb/kg and the high dose (143 mg Sb/kg) that was clinically used by accident without serious toxicity. This dose of sodium stibogluconate was based on a previous observation in a pilot study that mice could tolerate daily dose of 20 mg Sb (approximately 700-800 mg Sb/kg). An observation that the effect of sodium stibogluconate in inhibiting the growth of the cancer cell lines in vitro was dose-dependent with complete or near complete killing of the cancer cells at 100 μg Sb/ml (or […]) was also considered. […]
# As discussed above, the dosage of sodium stibogluconate used for the treatment of nude mice was 12 mg Sb/mouse, s.c., daily (or approximately 440 mg/kg body weight). […] As an initial step to assess the toxicity of such a high dosage of sodium stibogluconate in nude mice, the effect of sodium stibogluconate on the viability and body weights of WM9 xenografts nude mice during the 25 day period of the study was determined.
# TF-1 cells = experiment: TF-1 cell proliferation assay; assay type: cell-based, human; conditions: 50 μg/ml
# Method: The murine hematopoietic cell line Baf3 was maintained in RPMI 1640 medium supplemented with 10% fetal calf serum (FCS) and murine IL-3 (20 units/ml) as described previously in Damen et al., J. Biol. Chem. 270, 23402 (1995). Human myeloid cell line TF-1 was maintained in RPMI 1640 supplemented with 10% FCS and 40 ng/ml of recombinant human GM-CSF as described previously in Thomassen et al., Clin. Immunol. 95, 85 (2000). For cell proliferation assays, cells were washed in 10% FCS medium twice, resuspended in 10% FCS medium, incubated at 37° C. for 16 hours, and then cultured at 37° C. in 10% FCS medium containing various amounts of cytokines, sodium stibogluconate, or potassium antimonyl tartrate for 3-6 days as indicated. The cell numbers in proliferation assays were determined by an MTT assay or by microscopic cell counting as indicated.
# SK-N-SH = SK-N-SH cell growth, MTT; assay type: cell-based, human; conditions: 100 μg/ml, day 6
# Method: as §1
# WM35 = WM35 cell growth, MTT; assay type: cell-based, human
# Method: (§2) For cell proliferation assays, cells were grown in 10% FCS culture medium containing various amounts of IFNs and/or sodium stibogluconate in 96 well plates and cultured at 37° C. for 3 or 6 days as indicated. The numbers of viable cells in proliferation assays were determined by MTT assays as described in Phatak et al., J. Immunol. 167, 3391 (2001).
# LoVo = LoVo cell growth, MTT; assay type: cell-based, human; conditions: 100 μg/ml, day 6
# Method: as §1
# MDA231 = MDA231 cell growth, MTT; assay type: cell-based, human; conditions: 50 μg/ml, day 6 culture
# Method: as §2
# A549 = A549 cell growth, MTT; assay type: cell-based, human; conditions: 100 μg/ml, day 6
# Method: as §1
# DU145R cells = experiment: DU145R cell growth, MTT; assay type: cell-based, human; conditions: day 6 culture
# Method: DU145 cells were cultured in the presence of sodium stibogluconate (100 μg/ml) in 48 well plates for 3 weeks. Cells from a well containing a single colony were transferred to flasks, cultured in sodium stibogluconate-free medium for 3 weeks and used as DU145R cells for further characterization. Growth of DU145R cells in the absence or presence of sodium stibogluconate in day 6 culture was determined by MTT assays. cDNAs of the coding region of PRLs were derived by RT-PCR from DU145 and DU145R cells and sequenced using primers described below.
smiles,measurement,setting,value
O.O.O.O.O.O.O.O.O.O=C([O-])[C@@H]1[O][Sb]2([O-])([O][Sb]34([OH])[O][C@H]([C@H](O)CO)[C@H]([O]3)[C@H](C(=O)[O-])[O]4)[O][C@H]([C@H](O)CO)[C@@H]1[O]2.[Na+].[Na+].[Na+] [sodium stibogluconate],cell killing of Hey,Hey,near-complete cell killing
same,viability and tolerance of treated mice,"toxicity in nude mice; WM9 xenograft mice, 25 days, 12 mg Sb daily (440 mg Sb/kg), IFN-alpha 500,000 U",survived until the end of the study; also recorded: well tolerated with no serious side effects
same,"tolerated daily dose, pilot study","toxicity in nude mice; mice, approximately 700-800 mg Sb/kg",20 mg Sb
same,GM-CSF-induced proliferation of TF-1 cells,TF-1 cells; GM-CSF 5-40 ng/ml,augmented
same,growth inhibition activity of IFN-alpha on TF-1 cells in presence of drug,TF-1 cells; with GM-CSF and IFN-alpha,enhanced
same,cell killing of SK-N-SH,SK-N-SH,near-complete cell killing
same,sensitivity of WM35 cells,WM35,minimally affected
same,cell killing of LoVo,LoVo,near-complete cell killing
same,"MDA231 cells, single agent",MDA231,killed all cells
same,cell killing of A549,A549,near-complete cell killing
same,growth of DU145R versus parental DU145 in presence of drug,DU145R cells,growth resistance
